Measured values from ChEMBL document CHEMBL1201862, “PubChem BioAssay data set” (2004).
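Grown in 96-well plates, cells were treated for 48 hours with each compound at five concentrations. Insufficient inhibition: endpoint recorded as highest concentration tested. The concentration for 50% growth inhibition is given as GI50.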 The source made the active and inactive calls. No stated cut-off is given here; in the data, active = GI50 up to about 1.1 µM and inactive = higher.

Key:
Assay in all cases: growth of human tumour cells (NCI), 48 h
SW-620 = system: SW-620
SNB-19 = system: SNB-19
NCI-H460 = system: NCI-H460
HL-60 = system: HL-60
KM12 = system: KM12
A549 = system: A549
RXF 393 = system: RXF 393
HCT-116 = system: HCT-116
SK-MEL-5 = system: SK-MEL-5
K562 = system: K562
M14 = system: M14
MDA-MB-231 = system: MDA-MB-231
IGROV-1 = system: IGROV-1
CCRF-CEM = system: CCRF-CEM
SK-OV-3 = system: SK-OV-3
DU-145 = system: DU-145
UO-31 = system: UO-31
NCI-H23 = system: NCI-H23
OVCAR-3 = system: OVCAR-3

Measured: GI50

N#Cc1c(-c2ccc(Cl)cc2)c(C#N)c(=O)n(NS(=O)(=O)c2ccccc2)c1O
inactive: SW-620 30.6 µM | SNB-19 37 µM | NCI-H460 19.9 µM | HL-60 16.1 µM | KM12 23.7 µM | A549 28.8 µM | RXF 393 21.8 µM | HCT-116 16.2 µM | SK-MEL-5 17.1 µM | K562 29.1 µM | M14 29.6 µM | MDA-MB-231 23.3 µM | IGROV-1 24.2 µM | CCRF-CEM 25.2 µM | SK-OV-3 21.5 µM

CC(C)(C)OC(=O)NCCNC(=O)OCc1ccccc1
inactive: DU-145 > 100 µM | SW-620 > 100 µM | SNB-19 > 100 µM | NCI-H460 > 100 µM | KM12 > 100 µM | A549 > 100 µM | RXF 393 > 100 µM | SK-MEL-5 50.6 µM | K562 85.9 µM | M14 > 100 µM | UO-31 > 100 µM | IGROV-1 > 100 µM | NCI-H23 > 100 µM | SK-OV-3 > 100 µM | OVCAR-3 > 100 µM

CCOC(=O)C(=O)Nc1ccc([N+](=O)[O-])cc1C#N
inactive: SW-620 > 100 µM | SNB-19 > 100 µM | NCI-H460 > 100 µM | HL-60 > 100 µM | KM12 > 100 µM | A549 > 100 µM | RXF 393 > 100 µM | HCT-116 > 100 µM | SK-MEL-5 > 100 µM | K562 > 100 µM | M14 > 100 µM | UO-31 > 100 µM | IGROV-1 > 100 µM | CCRF-CEM > 100 µM | NCI-H23 > 100 µM | SK-OV-3 > 100 µM | OVCAR-3 > 100 µM

Cc1cccc(N2C(=O)/C(=C/c3ccc(N(CCC#N)CCC#N)cc3C)N=C2c2cc([N+](=O)[O-])ccc2Cl)c1
inactive: SW-620 > 100 µM | SNB-19 > 100 µM | NCI-H460 > 100 µM | HL-60 74 µM | KM12 > 100 µM | A549 > 100 µM | HCT-116 85.7 µM | SK-MEL-5 > 100 µM | K562 86.1 µM | M14 > 100 µM | UO-31 > 100 µM | IGROV-1 > 100 µM | CCRF-CEM 41.9 µM | NCI-H23 > 100 µM | SK-OV-3 > 100 µM | OVCAR-3 > 100 µM

Cc1n2nc(N)sc2n[n+]1Cc1ccccc1
inactive: DU-145 > 100 µM | SW-620 > 100 µM | SNB-19 > 100 µM | NCI-H460 > 10 µM | KM12 > 100 µM | A549 70.6 µM | RXF 393 > 100 µM | HCT-116 > 100 µM | SK-MEL-5 49.5 µM | K562 47.5 µM | M14 > 100 µM | UO-31 > 100 µM | IGROV-1 58.9 µM | CCRF-CEM > 100 µM | NCI-H23 > 100 µM | SK-OV-3 > 100 µM | OVCAR-3 89.9 µM

O=C1C2c3[nH]c4ccccc4c3[C@@H]3CCCCC3C2C(=O)N1c1ccccc1 (stereo partly drawn)
inactive: SW-620 19.1 µM | SNB-19 36.1 µM | NCI-H460 17.8 µM | HL-60 20.3 µM | KM12 19.2 µM | A549 28.8 µM | RXF 393 16.7 µM | SK-MEL-5 17.9 µM | K562 20.9 µM | M14 15 µM | UO-31 17.3 µM | IGROV-1 23 µM | CCRF-CEM 26.5 µM | NCI-H23 19.5 µM | SK-OV-3 26.9 µM | OVCAR-3 15.4 µM

CC1(C)O/C(=C\c2ccccc2)C(=O)/C(=C/c2ccccc2)O1
inactive: SW-620 55.1 µM | SNB-19 47.4 µM | NCI-H460 59.6 µM | HL-60 9.25 µM | KM12 53.8 µM | A549 23.3 µM | RXF 393 13.9 µM | HCT-116 26.4 µM | SK-MEL-5 14.4 µM | K562 27 µM | M14 34.4 µM | UO-31 19.1 µM | IGROV-1 51.4 µM | CCRF-CEM 15.8 µM | NCI-H23 20 µM | SK-OV-3 72.6 µM | OVCAR-3 27.1 µM

CCCNC(=S)N/N=C/c1cccc(C)n1
inactive: HL-60 25.9 µM | KM12 > 100 µM | A549 26.4 µM | RXF 393 28.1 µM | HCT-116 7.18 µM | SK-MEL-5 31.7 µM | K562 31.7 µM | M14 12.3 µM | UO-31 17.2 µM | MDA-MB-231 33.7 µM | IGROV-1 42.7 µM | CCRF-CEM 2.69 µM | NCI-H23 28.9 µM | SK-OV-3 46 µM | OVCAR-3 2.91 µM

O=c1/c(=C\c2ccccc2)sc2n1C(c1ccccc1)C1(O)CCCCC1N=2 (stereo not drawn)
inactive: SW-620 > 100 µM | SNB-19 > 100 µM | NCI-H460 90.2 µM | HL-60 36 µM | A549 78.3 µM | HCT-116 51.3 µM | SK-MEL-5 > 100 µM | K562 45.2 µM | M14 > 100 µM | UO-31 44.2 µM | MDA-MB-231 95.7 µM | IGROV-1 > 100 µM | CCRF-CEM 91 µM | NCI-H23 56.9 µM | OVCAR-3 > 100 µM
